# Assay results reported in the supplement of paper PMC12463676, “Small-molecule dissolution of stress granules by redox modulation benefits ALS models” (Nature Chemical Biology, 2025).
# Assays:
# [1] = compound: NC(=O)CCCCC1CCSS1 [lipoamide]; assay: thermal stability z-score vs DMSO; higher = more thermally stabilized by treatment; settings: HeLa, lipoamide concentration 100 µM
# Method: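 Cellular thermal proteome profiling in HeLa cells. Cells were treated with 100 µM lipoamide for 1 h, with or without 1 mM arsenate for a further 1 h, then heated to ten temperatures (37-66.3 °C), and soluble protein was quantified by TMT mass spectrometry relative to 0.1% DMSO controls. The thermal stability score (sum of log2 fold changes minus the abundance score) was transformed to a z-score; mean of n = 3 experiments.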
# [2] = compound: O=[As]([O-])(O)O.[K+] [potassium arsenate]; assay: as above; settings: HeLa; arsenate concentration 1 mM
# Method: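 Cellular thermal proteome profiling in HeLa cells treated with 1 mM arsenate for 1 h (DMSO pretreatment), heated to ten temperatures (37-66.3 °C). Soluble protein was quantified by TMT mass spectrometry relative to DMSO controls; the thermal stability score was transformed to a z-score; mean of n = 3 experiments.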
# [3] = arsenate co-treatment: 1 mM arsenate 1 h
# 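Also: each temperature applied for 3 min, abundance score taken as mean log2 fold change at the two lowest temperatures, z-score obtained by mean subtraction and division by SD.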
# Sequence of UniProt Q7L014 (Q7L014 whole entry): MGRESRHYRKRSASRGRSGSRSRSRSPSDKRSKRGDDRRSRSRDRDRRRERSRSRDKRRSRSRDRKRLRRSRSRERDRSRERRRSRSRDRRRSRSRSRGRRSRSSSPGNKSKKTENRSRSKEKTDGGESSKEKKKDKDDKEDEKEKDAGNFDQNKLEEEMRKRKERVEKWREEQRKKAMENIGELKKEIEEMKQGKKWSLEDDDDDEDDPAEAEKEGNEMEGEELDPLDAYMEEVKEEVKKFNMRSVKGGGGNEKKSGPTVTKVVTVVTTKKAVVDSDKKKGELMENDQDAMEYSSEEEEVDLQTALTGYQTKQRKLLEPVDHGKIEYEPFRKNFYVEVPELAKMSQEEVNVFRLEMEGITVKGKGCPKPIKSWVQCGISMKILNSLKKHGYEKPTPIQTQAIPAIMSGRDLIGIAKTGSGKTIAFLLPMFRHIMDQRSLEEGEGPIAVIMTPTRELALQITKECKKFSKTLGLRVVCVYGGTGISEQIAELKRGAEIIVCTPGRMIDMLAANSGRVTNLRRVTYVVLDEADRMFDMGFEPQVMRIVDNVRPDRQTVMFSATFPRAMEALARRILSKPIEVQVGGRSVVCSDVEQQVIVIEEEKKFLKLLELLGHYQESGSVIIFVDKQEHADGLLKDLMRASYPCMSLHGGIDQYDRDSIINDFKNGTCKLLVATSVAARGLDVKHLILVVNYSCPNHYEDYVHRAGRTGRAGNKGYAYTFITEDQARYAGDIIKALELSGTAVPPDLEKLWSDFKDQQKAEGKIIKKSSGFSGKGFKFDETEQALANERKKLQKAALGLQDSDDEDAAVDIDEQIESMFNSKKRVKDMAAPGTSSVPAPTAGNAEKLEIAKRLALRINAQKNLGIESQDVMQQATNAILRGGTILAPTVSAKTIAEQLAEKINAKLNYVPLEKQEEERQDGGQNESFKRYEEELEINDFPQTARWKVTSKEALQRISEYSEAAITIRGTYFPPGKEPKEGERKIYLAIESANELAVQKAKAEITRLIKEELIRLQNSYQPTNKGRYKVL
# Sequence of UniProt Q92499 (Q92499 whole entry): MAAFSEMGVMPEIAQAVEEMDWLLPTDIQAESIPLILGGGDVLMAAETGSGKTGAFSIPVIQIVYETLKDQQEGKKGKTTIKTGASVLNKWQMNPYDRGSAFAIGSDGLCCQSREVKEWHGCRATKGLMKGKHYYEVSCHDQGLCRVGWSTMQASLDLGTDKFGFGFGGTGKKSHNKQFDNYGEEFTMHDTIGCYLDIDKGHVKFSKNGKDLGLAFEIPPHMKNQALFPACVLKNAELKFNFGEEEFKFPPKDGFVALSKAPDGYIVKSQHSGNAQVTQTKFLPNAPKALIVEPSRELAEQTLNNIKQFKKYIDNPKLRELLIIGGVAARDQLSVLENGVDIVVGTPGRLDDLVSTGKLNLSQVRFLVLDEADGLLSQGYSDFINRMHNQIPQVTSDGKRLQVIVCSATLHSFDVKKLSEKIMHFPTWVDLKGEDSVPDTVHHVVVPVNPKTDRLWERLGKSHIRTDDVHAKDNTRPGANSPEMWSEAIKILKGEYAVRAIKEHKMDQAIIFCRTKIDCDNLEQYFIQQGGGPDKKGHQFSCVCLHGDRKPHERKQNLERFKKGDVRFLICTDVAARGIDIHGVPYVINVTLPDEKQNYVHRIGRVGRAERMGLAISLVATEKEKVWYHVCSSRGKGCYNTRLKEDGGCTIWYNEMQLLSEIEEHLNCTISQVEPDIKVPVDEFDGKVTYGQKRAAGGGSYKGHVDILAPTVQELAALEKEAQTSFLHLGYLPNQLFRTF
# Sequence of UniProt Q9H0S4 (Q9H0S4 whole entry): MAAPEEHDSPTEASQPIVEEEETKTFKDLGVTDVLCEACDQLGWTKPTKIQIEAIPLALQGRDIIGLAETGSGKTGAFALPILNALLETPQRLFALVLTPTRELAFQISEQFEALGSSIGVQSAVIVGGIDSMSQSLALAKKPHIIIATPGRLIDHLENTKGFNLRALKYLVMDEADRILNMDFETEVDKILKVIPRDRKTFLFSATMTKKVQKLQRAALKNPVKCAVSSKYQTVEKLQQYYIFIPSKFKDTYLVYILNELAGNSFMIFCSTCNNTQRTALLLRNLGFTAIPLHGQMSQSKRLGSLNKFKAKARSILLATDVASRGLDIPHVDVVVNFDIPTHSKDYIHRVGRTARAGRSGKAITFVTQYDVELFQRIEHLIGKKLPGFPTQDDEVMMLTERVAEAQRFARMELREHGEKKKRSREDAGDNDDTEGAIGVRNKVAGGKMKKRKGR
# Sequence of UniProt O60443 (O60443 whole entry): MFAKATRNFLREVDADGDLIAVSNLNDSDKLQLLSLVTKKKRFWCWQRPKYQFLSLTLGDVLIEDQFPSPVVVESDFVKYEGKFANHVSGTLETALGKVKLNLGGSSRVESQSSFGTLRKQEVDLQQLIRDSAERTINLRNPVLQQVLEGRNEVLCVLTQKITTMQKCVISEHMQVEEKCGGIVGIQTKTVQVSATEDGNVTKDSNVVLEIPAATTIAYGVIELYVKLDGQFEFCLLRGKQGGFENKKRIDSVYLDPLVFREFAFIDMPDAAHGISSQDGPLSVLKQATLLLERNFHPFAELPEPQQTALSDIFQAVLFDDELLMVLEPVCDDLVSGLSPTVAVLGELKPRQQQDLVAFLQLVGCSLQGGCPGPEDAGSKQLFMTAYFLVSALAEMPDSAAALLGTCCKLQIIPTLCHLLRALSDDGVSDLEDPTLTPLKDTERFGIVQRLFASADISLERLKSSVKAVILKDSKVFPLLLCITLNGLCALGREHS
# Sequence of UniProt P39656 (P39656 whole entry): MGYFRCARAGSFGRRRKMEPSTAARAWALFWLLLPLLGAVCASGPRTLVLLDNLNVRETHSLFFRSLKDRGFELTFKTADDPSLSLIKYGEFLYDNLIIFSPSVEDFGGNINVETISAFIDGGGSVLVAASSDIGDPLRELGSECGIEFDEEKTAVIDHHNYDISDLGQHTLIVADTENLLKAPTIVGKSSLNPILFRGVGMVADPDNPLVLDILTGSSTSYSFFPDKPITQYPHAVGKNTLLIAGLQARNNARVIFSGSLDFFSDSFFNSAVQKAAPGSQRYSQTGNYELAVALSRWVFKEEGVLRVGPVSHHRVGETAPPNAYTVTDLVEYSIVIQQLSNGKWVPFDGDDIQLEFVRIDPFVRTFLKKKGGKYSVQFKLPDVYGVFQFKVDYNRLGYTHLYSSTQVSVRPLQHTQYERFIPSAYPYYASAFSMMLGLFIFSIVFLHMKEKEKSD
# Sequence of UniProt O75064 (O75064 whole entry): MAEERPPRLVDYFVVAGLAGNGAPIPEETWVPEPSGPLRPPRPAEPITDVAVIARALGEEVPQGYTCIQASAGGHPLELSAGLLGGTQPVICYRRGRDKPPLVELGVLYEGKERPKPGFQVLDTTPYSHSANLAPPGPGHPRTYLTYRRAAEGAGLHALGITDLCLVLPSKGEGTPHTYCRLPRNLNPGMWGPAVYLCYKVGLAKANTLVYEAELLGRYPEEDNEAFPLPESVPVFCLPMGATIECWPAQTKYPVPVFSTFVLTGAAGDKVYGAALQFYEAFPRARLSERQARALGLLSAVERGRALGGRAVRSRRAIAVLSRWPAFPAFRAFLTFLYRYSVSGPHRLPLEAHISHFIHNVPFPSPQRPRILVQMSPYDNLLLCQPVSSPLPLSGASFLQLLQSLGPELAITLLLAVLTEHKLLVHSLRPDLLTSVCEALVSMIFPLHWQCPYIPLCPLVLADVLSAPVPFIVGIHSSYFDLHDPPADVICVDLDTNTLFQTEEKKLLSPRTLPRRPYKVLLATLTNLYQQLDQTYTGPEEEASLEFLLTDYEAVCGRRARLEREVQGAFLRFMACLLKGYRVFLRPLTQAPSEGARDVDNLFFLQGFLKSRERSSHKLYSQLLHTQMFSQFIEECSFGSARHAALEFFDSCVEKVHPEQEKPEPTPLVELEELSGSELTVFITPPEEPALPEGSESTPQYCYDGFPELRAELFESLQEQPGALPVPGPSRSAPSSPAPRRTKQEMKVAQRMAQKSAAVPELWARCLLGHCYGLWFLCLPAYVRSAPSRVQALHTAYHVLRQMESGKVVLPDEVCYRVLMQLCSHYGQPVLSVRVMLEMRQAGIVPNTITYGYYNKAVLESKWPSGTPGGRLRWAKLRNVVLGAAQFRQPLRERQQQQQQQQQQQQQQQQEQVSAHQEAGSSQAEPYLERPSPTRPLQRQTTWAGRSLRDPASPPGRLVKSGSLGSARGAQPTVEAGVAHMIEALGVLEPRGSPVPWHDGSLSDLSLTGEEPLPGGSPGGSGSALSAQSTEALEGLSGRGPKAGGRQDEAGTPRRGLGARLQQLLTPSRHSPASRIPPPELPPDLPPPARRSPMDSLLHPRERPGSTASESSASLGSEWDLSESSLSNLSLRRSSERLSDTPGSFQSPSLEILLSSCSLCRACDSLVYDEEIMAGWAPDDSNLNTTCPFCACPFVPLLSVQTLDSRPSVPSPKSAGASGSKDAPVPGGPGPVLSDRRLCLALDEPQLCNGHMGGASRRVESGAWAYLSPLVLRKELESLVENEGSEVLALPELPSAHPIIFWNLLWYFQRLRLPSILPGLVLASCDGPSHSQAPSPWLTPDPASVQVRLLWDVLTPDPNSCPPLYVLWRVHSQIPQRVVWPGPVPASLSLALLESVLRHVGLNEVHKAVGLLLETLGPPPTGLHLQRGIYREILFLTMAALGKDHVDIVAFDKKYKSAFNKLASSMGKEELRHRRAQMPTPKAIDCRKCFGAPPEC
# Sequence of UniProt P00374 (P00374 whole entry): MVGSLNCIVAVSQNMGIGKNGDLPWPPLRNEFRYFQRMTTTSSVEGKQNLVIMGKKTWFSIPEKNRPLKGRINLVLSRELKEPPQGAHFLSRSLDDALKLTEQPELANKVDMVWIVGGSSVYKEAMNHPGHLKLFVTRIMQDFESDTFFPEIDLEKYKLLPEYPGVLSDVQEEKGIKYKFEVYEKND
# Sequence of UniProt P30046 (P30046 whole entry): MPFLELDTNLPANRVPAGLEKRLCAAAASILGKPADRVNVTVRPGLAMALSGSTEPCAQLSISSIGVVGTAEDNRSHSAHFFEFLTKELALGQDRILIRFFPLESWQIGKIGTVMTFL
target,measurement,setting,value
DDI2 (UniProt Q5TDH0),thermal stability z-score,[1]; [3],-0.174
same,thermal stability z-score,[1]; arsenate co-treatment: none,-0.209
same,thermal stability z-score,[2],-0.217
DDOST (UniProt P39656),thermal stability z-score,[1]; [3],-3.14
same,thermal stability z-score,[1]; arsenate co-treatment: none,-2.49
same,thermal stability z-score,[2],0.00935
DDR2 (UniProt Q16832),thermal stability z-score,[1]; [3],-0.251
same,thermal stability z-score,[1]; arsenate co-treatment: none,-0.189
same,thermal stability z-score,[2],-0.163
DDRGK1 (UniProt Q96HY6),thermal stability z-score,[1]; [3],-1.17
same,thermal stability z-score,[1]; arsenate co-treatment: none,-0.728
same,thermal stability z-score,[2],0.397
DDT (UniProt P30046),thermal stability z-score,[1]; [3],-0.198
same,thermal stability z-score,[1]; arsenate co-treatment: none,0.134
same,thermal stability z-score,[2],0.0872
DDX1 (UniProt Q92499),thermal stability z-score,[1]; [3],0.085
same,thermal stability z-score,[1]; arsenate co-treatment: none,0.274
same,thermal stability z-score,[2],-0.304
DDX3X (UniProt O00571),thermal stability z-score,[1]; [3],-0.829
same,thermal stability z-score,[1]; arsenate co-treatment: none,-0.504
same,thermal stability z-score,[2],-2.07
DDX5 (UniProt P17844),thermal stability z-score,[1]; [3],0.954
same,thermal stability z-score,[1]; arsenate co-treatment: none,1.43
same,thermal stability z-score,[2],-1.9
DDX6 (UniProt P26196),thermal stability z-score,[1]; [3],0.414
same,thermal stability z-score,[1]; arsenate co-treatment: none,0.53
same,thermal stability z-score,[2],1.01
DDX11 (UniProt Q96FC9),thermal stability z-score,[1]; [3],-0.753
same,thermal stability z-score,[1]; arsenate co-treatment: none,-0.517
same,thermal stability z-score,[2],1.07
DDX17 (UniProt Q92841),thermal stability z-score,[1]; [3],0.121
same,thermal stability z-score,[1]; arsenate co-treatment: none,0.424
same,thermal stability z-score,[2],-0.776
DDX18 (UniProt Q9NVP1),thermal stability z-score,[1]; [3],0.301
same,thermal stability z-score,[1]; arsenate co-treatment: none,0.0191
same,thermal stability z-score,[2],-1.26
DDX19A (UniProt Q9NUU7),thermal stability z-score,[1]; [3],0.865
same,thermal stability z-score,[1]; arsenate co-treatment: none,1.2
same,thermal stability z-score,[2],0.954
DDX20 (UniProt Q9UHI6),thermal stability z-score,[1]; [3],-0.457
same,thermal stability z-score,[1]; arsenate co-treatment: none,-0.527
same,thermal stability z-score,[2],-0.763
DDX21 (UniProt Q9NR30),thermal stability z-score,[1]; [3],0.693
same,thermal stability z-score,[1]; arsenate co-treatment: none,0.249
same,thermal stability z-score,[2],-1.35
DDX23 (UniProt Q9BUQ8),thermal stability z-score,[1]; [3],0.326
same,thermal stability z-score,[1]; arsenate co-treatment: none,0.137
same,thermal stability z-score,[2],-0.836
DDX24 (UniProt Q9GZR7),thermal stability z-score,[1]; [3],1.1
same,thermal stability z-score,[1]; arsenate co-treatment: none,0.327
same,thermal stability z-score,[2],-0.522
DDX27 (UniProt Q96GQ7),thermal stability z-score,[1]; [3],0.47
same,thermal stability z-score,[1]; arsenate co-treatment: none,0.52
same,thermal stability z-score,[2],-0.231
DDX28 (UniProt Q9NUL7),thermal stability z-score,[1]; [3],-0.0583
same,thermal stability z-score,[1]; arsenate co-treatment: none,0.0995
same,thermal stability z-score,[2],0.0334
DDX31 (UniProt Q9H8H2),thermal stability z-score,[1]; [3],0.19
same,thermal stability z-score,[1]; arsenate co-treatment: none,0.0101
same,thermal stability z-score,[2],-0.348
DDX39A (UniProt O00148),thermal stability z-score,[1]; [3],-0.214
same,thermal stability z-score,[1]; arsenate co-treatment: none,0.12
same,thermal stability z-score,[2],0.441
DDX39B (UniProt Q13838),thermal stability z-score,[1]; [3],0.451
same,thermal stability z-score,[1]; arsenate co-treatment: none,0.103
same,thermal stability z-score,[2],0.941
DDX41 (UniProt Q9UJV9),thermal stability z-score,[1]; [3],-0.196
same,thermal stability z-score,[1]; arsenate co-treatment: none,-0.0709
same,thermal stability z-score,[2],-0.204
DDX42 (UniProt Q86XP3),thermal stability z-score,[1]; [3],0.815
same,thermal stability z-score,[1]; arsenate co-treatment: none,0.837
same,thermal stability z-score,[2],0.47
DDX46 (UniProt Q7L014),thermal stability z-score,[1]; [3],0.411
same,thermal stability z-score,[1]; arsenate co-treatment: none,0.501
same,thermal stability z-score,[2],-1.2
DDX47 (UniProt Q9H0S4),thermal stability z-score,[1]; [3],1.72
same,thermal stability z-score,[1]; arsenate co-treatment: none,0.253
same,thermal stability z-score,[2],0.634
DDX49 (UniProt Q9Y6V7),thermal stability z-score,[1]; [3],-0.368
same,thermal stability z-score,[1]; arsenate co-treatment: none,-0.359
same,thermal stability z-score,[2],-0.153
DDX50 (UniProt Q9BQ39),thermal stability z-score,[1]; [3],0.262
same,thermal stability z-score,[1]; arsenate co-treatment: none,0.192
same,thermal stability z-score,[2],-0.49
DDX54 (UniProt Q8TDD1),thermal stability z-score,[1]; [3],-0.154
same,thermal stability z-score,[1]; arsenate co-treatment: none,-0.015
same,thermal stability z-score,[2],-0.136
DDX55 (UniProt Q8NHQ9),thermal stability z-score,[1]; [3],0.693
same,thermal stability z-score,[1]; arsenate co-treatment: none,0.58
same,thermal stability z-score,[2],0.0246
DDX56 (UniProt Q9NY93),thermal stability z-score,[1]; [3],-0.847
same,thermal stability z-score,[1]; arsenate co-treatment: none,-0.217
same,thermal stability z-score,[2],0.917
DDX59 (UniProt Q5T1V6),thermal stability z-score,[1]; [3],-0.512
same,thermal stability z-score,[1]; arsenate co-treatment: none,-0.363
same,thermal stability z-score,[2],-1.01
DECR1 (UniProt Q16698),thermal stability z-score,[1]; [3],-0.133
same,thermal stability z-score,[1]; arsenate co-treatment: none,0.18
same,thermal stability z-score,[2],-0.0171
DECR2 (UniProt Q9NUI1),thermal stability z-score,[1]; [3],1.26
same,thermal stability z-score,[1]; arsenate co-treatment: none,1.15
same,thermal stability z-score,[2],1.27
DEGS1 (UniProt O15121),thermal stability z-score,[1]; [3],-0.756
same,thermal stability z-score,[1]; arsenate co-treatment: none,-1.25
same,thermal stability z-score,[2],0.212
DEK (UniProt P35659),thermal stability z-score,[1]; [3],0.116
same,thermal stability z-score,[1]; arsenate co-treatment: none,0.695
same,thermal stability z-score,[2],-0.316
DENND1A (UniProt Q8TEH3),thermal stability z-score,[1]; [3],-0.118
same,thermal stability z-score,[1]; arsenate co-treatment: none,-0.0262
same,thermal stability z-score,[2],-0.185
DENND4B (UniProt O75064),thermal stability z-score,[1]; [3],0.182
same,thermal stability z-score,[1]; arsenate co-treatment: none,-0.0196
same,thermal stability z-score,[2],0.288
DENND4C (UniProt Q5VZ89),thermal stability z-score,[1]; [3],0.201
same,thermal stability z-score,[1]; arsenate co-treatment: none,0.677
same,thermal stability z-score,[2],0.337
DENND5B (UniProt Q6ZUT9),thermal stability z-score,[1]; [3],0.0786
same,thermal stability z-score,[1]; arsenate co-treatment: none,0.0385
same,thermal stability z-score,[2],0.148
DENND6A (UniProt Q8IWF6),thermal stability z-score,[1]; [3],-0.149
same,thermal stability z-score,[1]; arsenate co-treatment: none,-0.836
same,thermal stability z-score,[2],-0.387
DENR (UniProt O43583),thermal stability z-score,[1]; [3],0.109
same,thermal stability z-score,[1]; arsenate co-treatment: none,-0.188
same,thermal stability z-score,[2],-0.702
DEPDC7 (UniProt Q96QD5),thermal stability z-score,[1]; [3],-0.328
same,thermal stability z-score,[1]; arsenate co-treatment: none,-0.237
same,thermal stability z-score,[2],-0.221
DERA (UniProt Q9Y315),thermal stability z-score,[1]; [3],0.0875
same,thermal stability z-score,[1]; arsenate co-treatment: none,-0.0376
same,thermal stability z-score,[2],-0.0631
DERL1 (UniProt Q9BUN8),thermal stability z-score,[1]; [3],-0.177
same,thermal stability z-score,[1]; arsenate co-treatment: none,-0.185
same,thermal stability z-score,[2],-0.00515
DERL2 (UniProt Q9GZP9),thermal stability z-score,[1]; [3],-0.00701
same,thermal stability z-score,[1]; arsenate co-treatment: none,-0.0318
same,thermal stability z-score,[2],0.0606
DFFA (UniProt O00273),thermal stability z-score,[1]; [3],0.376
same,thermal stability z-score,[1]; arsenate co-treatment: none,0.555
same,thermal stability z-score,[2],0.443
DFNA5 (UniProt O60443),thermal stability z-score,[1]; [3],0.218
same,thermal stability z-score,[1]; arsenate co-treatment: none,0.152
same,thermal stability z-score,[2],0.523
DGAT1 (UniProt O75907),thermal stability z-score,[1]; [3],-0.44
same,thermal stability z-score,[1]; arsenate co-treatment: none,-0.27
same,thermal stability z-score,[2],-0.264
DGCR14 (UniProt Q96DF8),thermal stability z-score,[1]; [3],-0.552
same,thermal stability z-score,[1]; arsenate co-treatment: none,0.06
same,thermal stability z-score,[2],0.724
DHCR7 (UniProt Q9UBM7),thermal stability z-score,[1]; [3],-0.283
same,thermal stability z-score,[1]; arsenate co-treatment: none,-0.384
same,thermal stability z-score,[2],0.411
DHCR24 (UniProt Q15392),thermal stability z-score,[1]; [3],0.408
same,thermal stability z-score,[1]; arsenate co-treatment: none,0.354
same,thermal stability z-score,[2],0.726
DHDDS (UniProt Q86SQ9),thermal stability z-score,[1]; [3],1.01
same,thermal stability z-score,[1]; arsenate co-treatment: none,0.391
same,thermal stability z-score,[2],0.205
DHFR (UniProt P00374),thermal stability z-score,[1]; [3],-0.995
same,thermal stability z-score,[1]; arsenate co-treatment: none,-0.563
same,thermal stability z-score,[2],0.324
DHODH (UniProt Q02127),thermal stability z-score,[1]; [3],0.213
same,thermal stability z-score,[1]; arsenate co-treatment: none,0.162
same,thermal stability z-score,[2],-0.752
